The record followed here is patent US20230265068A1, “TRANSIENT RECEPTOR POTENTIAL CANONICAL 3 INHIBITORS AND METHODS OF USE THEREOF” (University of Tennessee Research Foundation, priority 2020, published 2023).

Read-outs that look alike come from different tables or passages of the source.

One data set deals with hippocampal neurons. Nature of the data set: toxicity of compound alone in hippocampal neuronal culture. Format: cell-based, rat. The note with it: compound alone at different concentrations. The method, then:
To explore the potential biological effects of compound 22 in a TRPC3 related disease model, its neuroprotective ability in primary cultured neurons (14 DIV prepared from E17 rats as described) was evaluated. The effects on neuron dendritic morphology were measured by imaging. Mature hippocampal neurons (DIV=14) were treated with CHO control medium, or naturally secreted Aβ-containing conditioned medium (7PA2), or in combination with compound 22 or Pyr3 at different concentrations, for 16 hours, followed by immunocytochemistry using an antibody against MAP2 and DAPI (data not shown). […] Hippocampal neurons (DIV=14) were treated with compound 22 or Pyr3 alone at different concentrations, followed by immunocytochemistry staining with MAP2 and DAPI (data not shown).

A further data set concerns the target T1, TRPC3 (Homo sapiens, UniProt Q13507).
T1 sequence (Q13507 1-921): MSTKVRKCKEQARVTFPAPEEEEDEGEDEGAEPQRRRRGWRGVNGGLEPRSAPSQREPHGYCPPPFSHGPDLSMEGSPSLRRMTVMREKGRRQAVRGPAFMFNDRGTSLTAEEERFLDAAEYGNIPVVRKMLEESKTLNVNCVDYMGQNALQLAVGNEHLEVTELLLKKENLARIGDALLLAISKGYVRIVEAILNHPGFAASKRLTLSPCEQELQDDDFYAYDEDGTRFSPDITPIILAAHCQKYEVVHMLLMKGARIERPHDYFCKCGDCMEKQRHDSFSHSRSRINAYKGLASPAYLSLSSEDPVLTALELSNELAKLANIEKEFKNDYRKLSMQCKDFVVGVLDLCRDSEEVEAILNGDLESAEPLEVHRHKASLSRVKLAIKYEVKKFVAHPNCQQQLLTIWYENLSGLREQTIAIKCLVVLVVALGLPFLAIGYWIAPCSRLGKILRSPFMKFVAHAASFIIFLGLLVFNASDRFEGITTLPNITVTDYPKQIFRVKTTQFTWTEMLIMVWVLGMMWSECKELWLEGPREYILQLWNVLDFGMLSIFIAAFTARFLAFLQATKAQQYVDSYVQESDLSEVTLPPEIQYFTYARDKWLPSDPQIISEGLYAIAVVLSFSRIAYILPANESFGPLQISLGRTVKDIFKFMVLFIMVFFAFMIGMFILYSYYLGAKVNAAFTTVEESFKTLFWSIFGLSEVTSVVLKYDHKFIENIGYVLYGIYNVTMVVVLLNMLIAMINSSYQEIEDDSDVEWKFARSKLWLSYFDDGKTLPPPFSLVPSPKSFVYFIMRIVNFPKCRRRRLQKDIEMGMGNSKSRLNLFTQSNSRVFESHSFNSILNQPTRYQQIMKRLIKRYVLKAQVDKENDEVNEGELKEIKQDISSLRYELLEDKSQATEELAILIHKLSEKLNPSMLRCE
Nature of the data set: whole-cell patch clamp of HEK293 cells transfected with hTRPC3, currents activated by GSK1702934A. Details: expressed in transfected cells; host or cells: HEK293 (CRL-1573), transient transfection, pMO vector. Format: cell-based. Summed up: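 Whole-cell patch clamp on HEK293 cells co-transfected with hTRPC3 and GFP, recorded 18-24 h post-transfection. Bath held 140 mM NaCl, pH 7.4; pipette held 140 mM CsCl/5 mM EGTA, pH 7.2. Currents came from 1-s ramps −100 to 100 mV with GSK1702934A; compounds screened at 10 μM, IC50 from single-cell dose points.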
A general note: In patch-clamp work, channel activity is measured electrically.

For `CCNC(=O)c1cnn(-c2ccc(-n3ccc(Cl)c(Cl)c3=O)cc2)c1C(F)(F)F` [Compound 22], the “toxicity in neuronal culture” value with hippocampal neurons is given as “lack of toxicity”. Besides, at TRPC3 (10 μM compound in presence of agonist GSK1702934A, HEK293 whole-cell peak current, read-out: hTRPC3 % Inhibition at 10 μM (mean ± SEM)), the inhibition at 10 µM amounted to 89 ± 1.14%. Moreover, the IC50 at TRPC3 (agonist GSK1702934A, HEK293 whole-cell patch clamp, read-out: hTRPC3 IC50 (μM, mean ± SEM)) is 0.37 ± 0.03 µM; at TRPC3 (same value expressed in ng/ml, read-out: TRPC3 IC50 displayed in FIG. 6 (converted)), 0.51 µM; at TRPC3 (value shown in brain concentration figure, read-out: TRPC3 IC50 displayed in FIG. 6 (converted)), 0.51 µM.

Broadly, the inhibition is the change of the read-out against control, counted positive when it falls. One may read the IC50 as the concentration that gives 50% inhibition.
